Counter-ions that a name gives are not always drawn. Square brackets hold non-standard residues; d marks the D form. Peptide text beside a SMILES is read from it. * marks the point of attachment. X2 = CC(C)[C@@H](C(=O)*)N(C)CCCCCCN1C(=O)CC(SC[C@H](N)C(=O)O)C1=O; X1 = CC(C)[C@@H](C(=O)*)N(C)CCCCCC(=O)NCCCC[C@H](N)C(=O)O; Dolaproine = CO[C@@H]([C@@H]1CCCN1)[C@@H](C)C(=O)O; Dil = CC[C@H](C)[C@H](NC)[C@@H](CC(=O)O)OC; X5 = C[C@@H](N*)[C@@H](O)c1ccccc1; Oxazinan2yl(1,2) = C1CCN(*)OC1; NMeV = CN[C@H](C(=O)O)C(C)C
B1: Example 71 immunoconjugate (MF-Ta ADC) (antibody, human IgG1, lambda, V domains shown)
VH: QVELVQSGAEVKKPGESLKISCKGSGYSFTSYWIGWVRQAPGKGLEWMGIIDPGDSRTRYSPSFQGQVTISADKSISTAYLQWSSLKASDTAMYYCARGQLYGGTYMDGWGQGTLVTVSS
VL: DIALTQPASVSGSPGQSITISCTGTSSDIGGYNSVSWYQQHPGKAPKLMIYGVNNRPSGVSNRFSGSKSGNTASLTISGLQAEDEADYYCSSYDIESATPVFGGGTKLTVLG
modifications: auristatin linker-toxophore on cysteine sulphur

Assays:
tubulin = test: Fluorescence-based microtubule (tubulin) polymerization assay; format: biochemical
Method: Tubulin polymerization was investigated using the “Fluorescence-based Microtubule Polymerisation Assay Kit” from Cytoskeleton (Denver, Colo., USA; order number: BK011). With this assay, GTP is added to unpolymerized tubulin, allowing polymerization to take place spontaneously. The assay is based on the binding of the fluorophore 4′,6-di-amidino-2-phenylindole (DAPI) to tubulin. Free and bound DAPI can be differentiated on the basis of different emission spectra.
[…] In addition to the buffer control, paclitaxel, with a polymerization-increasing effect, and vinblastin, with a polymerization inhibiting effect, were run additionally as assay controls. Measurement was carried out using 96-well plates with a half base area. The kinetics of the tubulin polymerization were monitored in a Fluorimeter at 37° C. for 1 hour. The excitation wavelength was 355 nm, and emission was monitored at 460 nm. For the region of linear increase within the first 10 minutes, a calculation was made of the change in fluorescence per minute (ΔF/min), which represents the polymerization rate of the microtubuli. The potency of the test substances was quantified on the basis of their respective reduction of the polymerization rate.
The reduction in the tubulin polymerization rate occurs in dependence on the concentration of the test substance added.

Caco-2 cells = test: Caco-2 flux assay for cell permeability; format: in vitro ADME; details: 2 hours, B to A
Method: (§1) The cell permeability of a substance can be investigated by means of in vitro testing in a flux assay using Caco-2 cells [M. D. Troutman and D. R. Thakker, Pharm. Res. 20 (8), 1210-1224 (2003)]. For this purpose, the cells were cultured for 15-16 days on 24-well filter plates. For the determination of permeation, the respective working example was applied in a HEPES buffer to the cells either apically (A) or basally (B) and incubated for 2 hours. After 0 hours and after 2 hours, samples were taken from the cis and trans compartments. The samples were separated by HPLC (Agilent 1200, Böblingen, Germany) using reverse phase columns. The HPLC system was coupled via a Turbo Ion Spray Interface to a Triple Quadropol mass spectrometer API 4000 (Applied Biosystems Applera, Darmstadt, Germany). The permeability was evaluated on the basis of a Papp value, which was calculated using the formula published by Schwab et al. [D. Schwab et al., J. Med. Chem. 46, 1716-1725 (2003)].

[1] = Caco-2 flux assay for cell permeability; format: in vitro ADME; details: human, Caco-2 cells, B to A
Method: as §1

Mesothelin = Mesothelin (Homo sapiens, UniProt Q13421-3 37-598, GPI anchor); test: cell-based or functional assay
[2] = concentration of toxophore 1 μM
[3] = concentration of toxophore 10 μM

Molecule | Tubulin polymerization in the presence of toxophore in [%]. Tubulin polymerization rate at 1 μM MMAF set at 100% (tubulin; [2]) [%] | Tubulin polymerization in the presence of toxophore in [%]. Tubulin polymerization rate at 1 μM MMAF set at 100% (tubulin; [3]) [%] | Papp (B-A) (Caco-2 cells) [×10⁻⁶ cm/s] | Papp B→A at 2 h [1] [×10⁻⁶ cm/s] | HT29 meso+ IC50 [nM] (MTT proliferation) (Mesothelin)
CC[C@H](C)[C@@H]([C@@H](CC(=O)N1CCC[C@H]1[C@H](OC)[C@@H](C)C(=O)N[C@@H](Cc1c[nH]c2ccccc12)C(N)=O)OC)N(C)C(=O)[C@@H](NC(=O)[C@H](C(C)C)N(C)CCCC(=O)NNC(=O)CCCCCN1C(=O)CC(SC[C@H](N)C(=O)O)C1=O)C(C)C (stereo partly drawn) [Example 62, N-(4-{2-[6-(3-{[(2R)-2-Amino-2-carboxyethyl]sulphanyl}-2,5-dioxopyrrolidin-1-yl)hexanoyl]hydrazino}-4-oxobutyl)-N-methyl-L-valyl-N-[(3R,4S,5S)-1-{(2S)-2-[(1R,2R)-3-{[(2S)-1-amino-3-(1H-indol-3-yl)-1-oxopropan-2-yl]amino}-1-methoxy-2-methyl-3-oxopropyl]pyrrolidin-1-yl}-3-methoxy-5-methyl-1-oxoheptan-4-yl]-N-methyl-L-valinamide] | 88 | 25 | 0.2 |  | 
CC[C@H](C)[C@@H]([C@@H](CC(=O)N1CCC[C@H]1[C@H](OC)[C@@H](C)C(=O)N[C@H](C)[C@@H](O)c1ccccc1)OC)N(C)C(=O)[C@@H](NC(=O)[C@@H](NC)C(C)C)C(C)C [MMAE, monomethylauristatin E, reference compound] (H-[NMeV]V[Dil][Dolaproine]-X5) |  |  |  | 7.3 | 
CC[C@H](C)[C@@H]([C@@H](CC(=O)N1CCC[C@H]1[C@H](OC)[C@@H](C)C(=O)N[C@@H](Cc1c[nH]c2ccccc12)C(=O)O)OC)N(C)C(=O)[C@@H](NC(=O)[C@H](C(C)C)N(C)CCCCCCN1C(=O)CC(SC[C@H](N)C(=O)O)C1=O)C(C)C (stereo partly drawn) [Example 66, N-[6-(3-{[(2R)-2-Amino-2-carboxyethyl]sulphanyl}-2,5-dioxopyrrolidin-1-yl)hexyl]-N-methyl-L-valyl-N-[(3R,4S,5S)-1-{(2S)-2-[(1R,2R)-3-{[(1S)-1-carboxy-2-(1H-indol-3-yl)ethyl]amino}-1-methoxy-2-methyl-3-oxopropyl]pyrrolidin-1-yl}-3-methoxy-5-methyl-1-oxoheptan-4-yl]-N-methyl-L-valinamide] (X2-V[Dil][Dolaproine]W-OH) |  | 25 | 0.1 |  | 
CC[C@H](C)[C@@H]([C@@H](CC(=O)N1CCC[C@H]1[C@H](OC)[C@@H](C)C(=O)N[C@@H](Cc1c[nH]c2ccccc12)C(=O)NCc1ccccc1)OC)N(C)C(=O)[C@@H](NC(=O)[C@H](C(C)C)N(C)CCCC(=O)NNC(=O)CCCCCN1C(=O)CC(SC[C@H](N)C(=O)O)C1=O)C(C)C (stereo partly drawn) [Example 68, N-(4-{2-[6-(3-{[(2R)-2-Amino-2-carboxyethyl]sulphanyl}-2,5-dioxopyrrolidin-1-yl)hexanoyl]hydrazino}-4-oxobutyl)-N-methyl-L-valyl-N-[(3R,4S,5S)-1-{(2S)-2-[(1R,2R)-3-{[(2S)-1-(benzylamino)-3-(1H-indol-3-yl)-1-oxopropan-2-yl]amino}-1-methoxy-2-methyl-3-oxopropyl]pyrrolidin-1-yl}-3-methoxy-5-methyl-1-oxoheptan-4-yl]-N-methyl-L-valinamide] |  | 45 | 0.7 |  | 
CC[C@H](C)[C@@H]([C@@H](CC(=O)N1CCC[C@H]1[C@H](OC)[C@@H](C)C(=O)N[C@@H](Cc1c[nH]c2ccccc12)C(=O)O)OC)N(C)C(=O)[C@@H](NC(=O)[C@H](C(C)C)N(C)CCCCCC(=O)NCCCC[C@H](N)C(=O)O)C(C)C [Example 106, N-(6-{[(5S)-5-Amino-5-carboxypentyl]amino}-6-oxohexyl)-N-methyl-L-valyl-N-[(3R,4S,5S)-1-{(2S)-2-[(1R,2R)-3-{[(1S)-1-carboxy-2-(1H-indol-3-yl)ethyl]amino}-1-methoxy-2-methyl-3-oxopropyl]pyrrolidin-1-yl}-3-methoxy-5-methyl-1-oxoheptan-4-yl]-N-methyl-L-valinamide] (X1-V[Dil][Dolaproine]W-OH) | 80 | 14 | 0.1 |  | 
CC[C@H](C)[C@@H]([C@@H](CC(=O)N1CCC[C@H]1[C@H](OC)[C@@H](C)C(=O)N[C@@H](Cc1ccc(O)cc1)C(=O)N1CCCCO1)OC)N(C)C(=O)[C@@H](NC(=O)[C@H](C(C)C)N(C)CCCCCC(=O)NCCCC[C@H](N)C(=O)O)C(C)C [Example 117, N-(6-{[(5S)-5-Amino-5-carboxypentyl]amino}-6-oxohexyl)-N-methyl-L-valyl-N-[(3R,4S,5S)-1-{(2S)-2-[(1R,2R)-3-{[(2S)-3-(4-hydroxyphenyl)-1-(1,2-oxazinan-2-yl)-1-oxopropan-2-yl]amino}-1-methoxy-2-methyl-3-oxopropyl]pyrrolidin-1-yl}-3-methoxy-5-methyl-1-oxoheptan-4-yl]-N-methyl-L-valinamide trifluoroacetate] (X1-V[Dil][Dolaproine]Y-{Oxazinan2yl(1,2)}) | 88 | 21 | 0.15 |  | 
B1 |  |  |  |  | 22
